Tests used:
[1] = test system: anti-OVA IgG antibody affinity; test: Antibody affinity by sodium thiocyanate disruption; format: in vivo, mice; conditions: for antibody affinity vs PBS control: IC50 of sodium thiocyanate, after boost
Excerpt: Antibody affinity refers to the strength of an antibody to bind to the epitope of an antigen, which is a very important indicator when evaluating an antibody. It is due to gene mutations of antibody-forming cells themselves and selective activation of antigens for B cell clones. The functional state of the body is the result of long-term evolution and continuous adaptation to the external environment, which is of great significance to the defense of the body and the maintenance of autoimmune monitoring. In an in vitro test, the affinity of an antibody is determined by disrupting the antigen-antibody binding by sodium thiocyanate. The determination of antibody affinity is based on the fact that sodium thiocyanate can disrupt the binding of antigen and antibody, and the stronger the affinity of the antibody, the higher the concentration of sodium thiocyanate is required to dissociate the antigen and antibody. From another aspect if the affinity of the antibody is stronger, the effect of an adjuvant is better.
The OVA protein was diluted to a concentration of 2 μg/ml with a carbonate solution of pH 9.6, coated in a 96-well ELISA plate at 50 μl per well, and left at 4° C. overnight. The ELISA plate was washed five times with PBS containing 0.05% Tween 20, blocked with 1% BSA solution at 200 μl per well, and incubated at room temperature for 2 h. The ELISA plate was washed five times with PBST and the serum with certain dilution was added. Specifically, for the dilutions, the PBS group was not diluted, the simvastatin group was diluted 16-fold, the TH-Z80 group was diluted 16-fold, the TH-Z93 group was diluted 32-fold, the TH-Z145 group was diluted 16-fold, the imiquimod group was diluted 8-fold, the PEI group was diluted 8-fold, the aluminum adjuvant group was diluted 8-fold, the MF59 group was diluted 16-fold, the incomplete Freund's adjuvant group was diluted 32-fold, and the complete Freund's adjuvant group was diluted 64-fold. Before adding sodium thiocyanate, the amount of anti-OVA IgG type antibody in the diluted serum was the same, 50 μl per well, and incubated for 2 h at room temperature. After washing the ELISA plate with PBST for five times, 10 mM, 9.5 mM, 9 mM, 8.5 mM, 8 mM, 7.5 mM, 7 mM, 6.5 mM,6 mM, 5.5 mM, 5 mM, 4.5 mM, 4 mM, 3.5 mM, 3 mM, 2.5 mM, 2 mM, 1.5 mM, and 0.5 mM sodium thiocyanate were added to each well at 50 μl per well, and incubated for 30 min at room temperature. After washing the ELISA plate for five times with PBST, HRP-labeled goat-anti-mouse antibody was added to each well at 50 μl per well and incubated for 45 min at room temperature. The ELISA plate was washed for five times with PBST, and a color developing solution of sodium citrate OPD was added. After 10 min of color development in the dark, sulfuric acid was added to terminate the reaction. According to the readings of ELIASA, the Prism software was used to calculate the IC50 of sodium thiocyanate. The higher the IC50 value, the stronger the antibody affinity produced by the immunization.
In an in vitro test, the affinity of the antibody was determined by disrupting the binding of the antigen to the antibody by NaSCN. The procedure was as follows: a 96-well ELISA plate was coated with 2 μg/ml OVA, and blocked with 2% BSA. […] Absorbance values at OD 490 nm were read. The IC50 values of NaSCN inhibition were calculated. […]

anti-OVA IgG = test: Comparison with existing adjuvants: IgG titer after boost; format: in vivo, mice; conditions: 100 μg adjuvant, intramuscular, 7th day after third immunization
[2] = test system: PvGGPPS (geranylgeranyl pyrophosphate synthase from Plasmodium); test: In vitro PvGGPPS enzymatic activity assay; format: biochemical; conditions: GPP and IPP substrates
Protocol: PvGGPPs with 6 consecutive His at the N-terminus was induced to express in vitro, collected, and purified by Ni column. In vitro PvGGPPs enzymatic activity assay was performed in a 96-well plate at 200 μl of solution per well. The buffer of the system was 25 mM HEPES, 2.5 mM MgCl2, pH 7.4. Using GPP and IPP as reaction substrates, a 360 nm continuous spectrophotometric detection was performed in a phosphate lyase system. ORIGIN 8.0 software was used to plot and fit.

[3] = test system: B lymphocytes, T lymphocytes, macrophages and dendritic cells in lymph nodes; test: Recruitment of cells in lymph nodes after immunization; format: in vivo, mice; conditions: 24 hours after subcutaneous immunization, vs Ctrl and PBS
Protocol: Method: Following an similar procedure of example 1, OVA was used as antigen and three inhibitor compounds, simvastatin, TH-Z80, and TH-Z145 were added as adjuvants, respectively. The OVA antigen and adjuvant were mixed at 1:1 and used for immunizing mice by subcutaneous injection. 24 hours after immunization, inguinal lymph nodes ipsilateral to the immunization were removed and separated through a 100 mesh screen into single-cell suspension. Flow cytometry was used to determine changes of the proportions and numbers of B lymphocytes, T lymphocytes, macrophages and dendritic cells in lymph nodes. The marker of the B lymphocyte was B220, the marker of the T lymphocyte was CD3, the markers of the macrophage were CD11b and F4/80, and the marker of the dendritic cell was CD11c.

Row | Compound | antibody affinity vs PBS control [1] | antibody affinity compared to PBS ([1]; NaSCN IC50, 7 days after boosting) | IgG antibody titer after boost vs PBS control (anti-OVA IgG) | IC50 [2] [µM] | proportions and numbers of B lymphocytes, T lymphocytes, macrophages and dendritic cells in lymph nodes [3]
1 | CCCCCCOc1ccc2c(c1)ncn2CC(O)(P(=O)(O)O)P(=O)(O)O [TH-Z80] | significantly high titers and antibody affinities | significantly increased the affinity | significantly high titers | 0.37 | significantly increased
2 | CCCCCCCCOc1ccc2c(c1)ncn2CC(O)(P(=O)(O)O)P(=O)(O)O [TH-Z81] |  |  |  | 2.07 | 
3 | CCCCCCOc1ccnc(NC(P(=O)(O)O)P(=O)(O)O)c1 [TH-Z93, (((4-(hexyloxy)pyridin-2-yl)amino)methylene)bisphosphonic acid] | significantly high titers and antibody affinities |  | significantly high titers |  | 
4 | CCCCCCCOc1ccc2c(c1)ncn2CC(O)(P(=O)(O)O)P(=O)(O)O [TH-Z152] |  |  |  | 0.95 | 
5 | CCCCCCCCCOc1ccc2c(c1)ncn2CC(O)(P(=O)(O)O)P(=O)(O)O [TH-Z153] |  |  |  | 1.09 | 
6 | CCC(C)(C)C(=O)O[C@H]1C[C@@H](C)C=C2C=C[C@H](C)[C@H](CC[C@@H]3C[C@@H](O)CC(=O)O3)[C@H]21 [simvastatin, reference compound] | significantly high titers and antibody affinities |  | significantly high titers |  | significantly increased
7 | (2-(3-(octyloxy)phenyl)ethane-1,1-diyl)bisphosphonic acid [TH-Z145] | significantly high titers and antibody affinities |  | significantly high titers |  | significantly increased
